Data: US20070032551A1, “Salt of dimethylaminomethyl-phenyl-cyclohexane and crystalline forms thereof” (GRUENENTHAL GMBH, priority 2005, published 2007)

Assays:
[1] = Water uptake of fumarate and hydrochloride by DVS (Example E8); type: physicochemical; details: 25° C.
Method: (§1) The water uptake is determined by means of dynamic water vapor uptake (dynamic vapor sorption, DVS) with the DVS-1 apparatus from Surface Measurement Systems Ltd. The sample is placed in a platinum crucible on the tip of a microbalance. The sample is then first equilibrated at 50% relative atmospheric humidity and subsequently subjected to a predefined measurement program. The temperature is 25° C. The change in weight of the sample after a stepwise increase in the relative atmospheric humidity by in each case 10% to 90% is determined.

[2] = Damp storage and drying of fumarate and hydrochloride (Example E9); type: physicochemical; details: for change in the crystalline form (X-ray diffraction diagrams): after damp storage and drying; for DW (dry weight), starting value / WC (Karl Fischer water content), starting value: before the start of the storage
Method: Fumarate and hydrochloride according to Example E8 are first stored at 25° C. and 75% and 95% relative atmospheric humidity for 7 days and thereafter at 50° C. in vacuo in a drying cabinet for 7 days. Before the start of the storage, the X-ray diffraction diagrams (XRD), DSC for determination of transition points (Tp) and dry weight (DW) and the Karl Fischer water content (WC) are determined, and the same values are determined after the damp storage and drying. The X-ray diffraction diagrams show no change in the crystalline forms A and D after damp storage and drying. The starting values for the hydrochloride are Tp=116.27° C., DW=6.35% and WC=8.00%. The starting values for the fumarate are Tp=93.11° C. and 175.14° C., DW=0 and WC=0.2%. The results are given in Tables 7 (75% relative atmospheric humidity) and 8 (95% relative atmospheric humidity).

[3] = Hygroscopicity (general statement); type: physicochemical
[4] = Bioavailability (general statement)
[5] = Solubility (general statement)
[6] = Stability under grinding conditions (Example E4); type: physicochemical; details: for crystalline form after trituration: pestle in a mortar dish, 5 minutes; for crystalline form after grinding: agate ball mill, 20 Hz, room temperature, 180 minutes
Method: The fumarate prepared according to Example C3 is triturated with a pestle in a mortar dish for 5 minutes.
The fumarate prepared according to Example A1 is introduced into an agate ball mill (Retsch MM200 mixing mill with 5 mm agate balls) and ground at 20 Hz and room temperature for 180 minutes.

[7] = Storage at room temperature in high and low atmospheric humidity, crystal form by Raman (Examples E1-E3, B1); type: physicochemical; details: for crystalline form after storage (Raman) / crystalline form after storage: room temperature
Method: Unless stated otherwise, the crystal forms are determined by comparison of the Raman spectra.
a) 30 mg of the amorphous fumarate prepared according to Example Bi are stored at room temperature and 75% relative atmospheric humidity for 5 days.
b) 30 mg of the amorphous fumarate prepared according to Example B2 are stored at room temperature and 90% relative atmospheric humidity for 3 days.
c) 30 mg of the amorphous fumarate prepared according to Example B2 are stored at room temperature and 53% relative atmospheric humidity for 2 months.
d) 30 mg of the amorphous fumarate prepared according to Example B2 are stored at room temperature and 22% relative atmospheric humidity for 2 months. Thereafter, the amorphous product is still present.
The fumarate prepared according to Example C3 is stored at room temperature and 75% relative atmospheric humidity, and after 3 days and 1, 2, 3, 4 and 8 weeks samples are analyzed by means of Raman spectroscopy.
The crystalline form B prepared according to Example A1 is stored at room temperature and 75% relative atmospheric humidity, and after 3 days and 1, 2, 3, 4 and 8 weeks samples are analyzed by means of Raman spectroscopy.

[8] = Stability under pressure, pressing of tablets (Example E5); type: physicochemical; details: 100 MPa in vacuo, 60 minutes
Method: The fumarate prepared according to Example C3 is introduced into a tablet press and pressed to a tablet under a pressure of 100 MPa in vacuo for 60 minutes.

[9] = Water uptake by dynamic vapor sorption (Example E6); type: physicochemical; details: 25° C.; for crystalline form present at the end of the DVS measurement: fumarate; for water uptake: DVS
Method: as §1, with “sample” for “sample after a stepwise increase in the relative atmospheric humidity by in each case 10% to 90%”

[10] = Stability at elevated temperature, HPLC and FT Raman (Example E7); type: physicochemical; details: for stability at elevated temperature (in words): open and closed vessels
Method: The crystalline forms are stored in open and closed vessels and possible changes are measured as stability parameters by chromatography (HPLC) after a given time.

[11] = 75% r.h. storage, then drying at 50° C. in vacuo for 7 days
[12] = 95% r.h. storage, then drying at 50° C. in vacuo for 7 days
[13] = after damp storage, 25° C., 75% relative atmospheric humidity, 7 days
[14] = after damp storage, 25° C., 95% relative atmospheric humidity, 7 days
[15] = 75% relative atmospheric humidity, after 8 weeks, fumarate
[16] = 40° C./75% r.h., 1 week, fumarate
[17] = 60° C. (closed), 1 week, fumarate
[18] = 60° C. (closed), 4 weeks, fumarate
[19] = 60° C./75% r.h., 4 weeks, fumarate

SMILES	WC (%) [2, 11] [%]	WC (%) [2, 12] [%]	change in the crystalline form (X-ray diffraction diagrams) [2]	WC (%) [2, 13] [%]	WC (%) [2, 14] [%]	DW (dry weight), starting value [2] [%]	WC (Karl Fischer water content), starting value [2] [%]	hygroscopicity [3]	crystalline form after storage (Raman) [7, 15]	crystalline form after pressing to a tablet [8]	crystalline form present at the end of the DVS measurement [9]	water uptake ([9]; measurement cycle)	solubility in polar solvents [5]	HPLC [10, 16] [%]	HPLC [10, 17] [%]	HPLC [10, 18] [%]	HPLC [10, 19] [%]	stability at elevated temperature (in words) ([10]; fumarate)	HPLC ([10]; −18° C. (reference), 4 weeks) [%]	other results
CN(C)C[C@@H]1CCCC[C@H]1c1cccc(O)c1.Cl [Hydrochloride, (+)-(1R,2R)-3-[2-(Dimethylamino)methyl-(cyclohex-1-yl)]-phenol hydrochloride]	6.00	6.60	no change	8.50	8.50	6.35	8.00													water uptake in total ([1]; 90% relative atmospheric humidity): about 5 wt. %; water uptake ([1]; relative atmospheric humidity increased to about 75%): about 2 wt. %; water released on desorption, in total ([1]; stepwise lowering of relative atmospheric humidity by 10%): 8.5%; DW (%) [2, 11]: 6.12%; DW (%) [2, 12]: 6.74%; DW (%) [2, 13]: 5.92%; DW (%) [2, 14]: 7.84%
CN(C)CC1CCCCC1c1cccc(O)c1.O=C(O)/C=C/C(=O)O (centres unmarked) [3-[2-(dimethylamino)methyl-(cyclohex-1-yl)]-phenol fumarate]								not hygroscopic												bioavailability [4]: good; solubility ([5]; particularly in polar and protic solvents, including water): good
CN(C)C[C@@H]1CCCC[C@H]1c1cccc(O)c1.O=C(O)/C=C/C(=O)O [crystalline form A, (+)-(1R,2R)-3-[2-(dimethylamino)methyl-(cyclohex-1-yl)]-phenol fumarate]									crystalline form B is also present	mixture of the crystalline forms A and B	substantially the crystalline form B	about 0.2 wt. %	very good	99.5	99.9	99.6	99.3	very stable in respect of chemical stability and crystal form	100	crystalline form after trituration ([6]; listed as Example C3, fumarate): mixture of the crystalline form A and B; crystalline form after storage (Raman) ([7]; 75% relative atmospheric humidity, after 3 days): converted into the crystalline form B; FT Raman (determination of the crystalline form) ([10]; 60° C. (closed), 1 week): A and B; FT Raman (determination of the crystalline form) ([10]; 60° C. (closed), 4 weeks): A and B; FT Raman (determination of the crystalline form) ([10]; −18° C. (reference), 4 weeks): A and B
CN(C)C[C@@H]1CCCC[C@H]1c1cccc(O)c1.O=C(O)/C=C/C(=O)O [amorphous form, (+)-(1R,2R)-3-[2-(dimethylamino)methyl-(cyclohex-1-yl)]-phenol fumarate]											crystalline form A									form after storage ([7]; 22% relative atmospheric humidity and 25° C., after 2 months): still amorphous; crystalline form after storage ([7]; 22% relative atmospheric humidity, 2 months): still present; crystalline form after storage ([7]; 53% relative atmospheric humidity, 2 months): converted completely into the crystalline form B; crystalline form after storage ([7]; 75% relative atmospheric humidity, 5 days): converted completely into the crystalline form B; crystalline form after storage ([7]; 90% relative atmospheric humidity, 3 days): converted completely into the crystalline form B; water uptake ([9]; up to about 77% relative atmospheric humidity): about 6.5 wt. %
CN(C)C[C@@H]1CCCC[C@H]1c1cccc(O)c1.O=C(O)/C=C/C(=O)O [crystalline form B, (+)-(1R,2R)-3-[2-(dimethylamino)methyl-(cyclohex-1-yl)]-phenol fumarate]	0.30	0.30	no change	0.50	0.50	0	0.2	not hygroscopic	practically unchanged	mixture of the crystalline forms A and B	unchanged	about 0.2 wt. %	very good	100.0	99.0	100.6	99.1	very stable in respect of chemical stability	100	crystalline form after grinding ([6]; fumarate): mixture of the crystalline forms A and B; crystalline form after grinding ([6]; listed as Example A1, fumarate): mixture of the crystalline form A and B; crystalline form after trituration ([6]; fumarate): unchanged; release of absorbed moisture on desorption ([1]; at about 10% relative atmospheric humidity): released again completely; water uptake ([1]; stepwise increase of relative atmospheric humidity by 10% to 90%): 0.13%
CN(C)CC1CCCCC1c1cccc(O)c1.Cl (centres unmarked) [3-[2-(dimethylamino)methyl-(cyclohex-1-yl)]-phenol hydrochloride, reference compound]								decidedly hygroscopic												
